Structures can show the parent of a compound that is named as a salt. Where two headings read alike, the source gives them in different places. Some results are limits rather than exact numbers.

For one assay, the target named is T1, TBK1 (Homo sapiens, UniProt Q9UHD2).
T1 sequence (Q9UHD2 1-729): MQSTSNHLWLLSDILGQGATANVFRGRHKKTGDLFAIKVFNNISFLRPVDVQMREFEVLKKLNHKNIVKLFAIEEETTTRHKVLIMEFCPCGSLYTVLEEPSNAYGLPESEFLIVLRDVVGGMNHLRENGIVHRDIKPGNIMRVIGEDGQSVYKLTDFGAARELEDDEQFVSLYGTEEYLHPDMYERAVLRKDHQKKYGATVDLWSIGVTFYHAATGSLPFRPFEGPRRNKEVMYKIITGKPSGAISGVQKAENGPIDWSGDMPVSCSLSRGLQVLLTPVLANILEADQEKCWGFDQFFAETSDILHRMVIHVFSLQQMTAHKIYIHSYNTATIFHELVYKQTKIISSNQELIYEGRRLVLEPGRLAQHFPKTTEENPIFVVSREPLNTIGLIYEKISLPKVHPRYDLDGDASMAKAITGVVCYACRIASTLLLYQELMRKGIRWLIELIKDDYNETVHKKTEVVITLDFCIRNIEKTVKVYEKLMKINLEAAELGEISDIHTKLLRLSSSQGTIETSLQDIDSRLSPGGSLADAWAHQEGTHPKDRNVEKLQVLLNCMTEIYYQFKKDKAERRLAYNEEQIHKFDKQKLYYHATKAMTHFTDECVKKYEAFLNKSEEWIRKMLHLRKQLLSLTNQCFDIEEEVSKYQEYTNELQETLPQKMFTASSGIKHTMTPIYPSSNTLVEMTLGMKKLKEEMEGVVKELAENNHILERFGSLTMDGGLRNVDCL
Nature of the assay: TBK Biochemical Assay. The settings on record: read-out: TBK1 IC50. The procedure, abridged:
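TBK1 enzyme and substrate incubated with compounds (10-point 1:4 dilution, top 30 uM final, 1% DMSO) for 90 min at 25° C, then stopped. Substrate/product peaks read by microfluidic mobility-shift (Caliper LabChip); 10 uM staurosporine as full-inhibition control.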

A further assay has as its target T2, IKKε (Homo sapiens, UniProt Q14164).
T2 sequence (Q14164 1-716): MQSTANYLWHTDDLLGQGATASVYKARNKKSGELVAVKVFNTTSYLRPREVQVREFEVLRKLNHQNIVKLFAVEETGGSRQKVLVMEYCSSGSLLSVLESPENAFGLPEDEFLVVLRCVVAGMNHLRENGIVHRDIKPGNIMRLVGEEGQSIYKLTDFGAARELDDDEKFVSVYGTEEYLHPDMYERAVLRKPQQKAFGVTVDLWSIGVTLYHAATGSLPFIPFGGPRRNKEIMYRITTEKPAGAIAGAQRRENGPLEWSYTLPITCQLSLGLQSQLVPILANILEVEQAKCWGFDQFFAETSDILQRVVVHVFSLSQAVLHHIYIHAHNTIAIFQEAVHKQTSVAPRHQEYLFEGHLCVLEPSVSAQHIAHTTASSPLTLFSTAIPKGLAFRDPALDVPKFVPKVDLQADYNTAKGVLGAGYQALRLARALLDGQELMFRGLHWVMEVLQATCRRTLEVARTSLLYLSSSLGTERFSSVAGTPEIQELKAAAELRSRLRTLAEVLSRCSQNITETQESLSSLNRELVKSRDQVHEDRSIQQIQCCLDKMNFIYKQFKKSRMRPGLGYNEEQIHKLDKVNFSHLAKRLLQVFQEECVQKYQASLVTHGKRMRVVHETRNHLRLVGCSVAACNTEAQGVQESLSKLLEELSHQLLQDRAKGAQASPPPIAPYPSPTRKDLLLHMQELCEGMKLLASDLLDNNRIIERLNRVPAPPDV
Nature of the assay: IKKe Biochemical Assay. Particulars: read-out: IKKε IC50. The procedure, abridged:
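Recombinant IKKε and substrate were incubated with compound (10-point 1:4 series, top 30 uM final, 1% DMSO) for 90 min at 25° C, then stopped. Substrate-to-product conversion was read by LabChip microfluidic mobility shift; 10 uM staurosporine served as full-inhibition wells.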

The test system of assay [1] is phosphorylation of the IRF-3 protein in MDA-MB-468 cells. The experiment in a line: pIRF3 immunocytochemistry cell based assay. The settings on record: Homo sapiens. The procedure, abridged:
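MDA-MB-468 cells got compounds (10-point, 3-fold from 10 uM) for 1 h at 37 °C, then 10 ug/ml Poly(I:C) for 2 h. Fixed, permeabilized cells were immunostained for pIRF3 with AlexaFluor488 and counterstained with PI. % phosphorylation was read by laser scanning cytometry, and IC50 curves were fitted.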

Setting [2] is: MDA-MB-468 cells, Poly(I:C) stimulation, read-out: pIRF3 IC50.

A word on the IC50: it is the concentration needed to halve the response being measured. Take `CN(C)C(=O)c1ccc(-c2cc3nccc(-c4ccc(OC5CCOCC5F)c(C#N)c4)c3o2)cc1` (stereo not drawn) [Compound 129]: the values for the IC50 (at TBK1; on IKKε; in assay [1] (setting [2])) were < 100 nM, < 100 nM and 100 to 1000 nM, respectively.

As for `COc1cc(C(=O)N(C)C)ccc1-c1cc2nccc(-c3ccc(OC4CN(C)C4)c(C#N)c3)c2o1` [Compound 484, 4-{7-[3-Cyano-4-(1-methyl-azetidin-3-yloxy)-phenyl]-furo[3,2-b]pyridin-2-yl}-3-methoxy-N,N-dimethyl-benzamide], the IC50 (at TBK1; at IKKε; in assay [1] (setting [2])) was < 100 nM throughout.

As to `COc1cc(C(=O)N(C)C)cnc1-c1cc2nccc(-c3cnc(N4CCC(F)C4)c(C#N)c3)c2o1` (stereo not drawn) [Compound 489], the IC50 at TBK1 is < 100 nM; at IKKε it was < 100 nM; in assay [1] (setting [2]), 100 to 1000 nM.

As for `COc1cc(C(=O)N[C@@H]2CCC[C@@H](O)[C@H]2O)ccc1-c1cc2nccc(-c3ccc(OC4CCOCC4)c(C#N)c3)c2o1` [Compound 54, 4-{7-[3-Cyano-4-(tetrahydro-pyran-4-yloxy)-phenyl]-furo[3,2-b]pyridin-2-yl}-N-((1R,2S,3R)-2,3-dihydroxy-cyclohexyl)-3-methoxy-benzamide], the IC50 was < 100 nM at TBK1, < 100 nM on IKKε and 100 to 1000 nM in assay [1] (setting [2]).

For `COc1cc(C(=O)N(C)C)cnc1-c1cc2nccc(-c3ccc(OC4CCOCC4F)c(C#N)c3)c2o1` (stereo not drawn) [Compound 486, 6-{7-[3-Cyano-4-(3-fluoro-tetrahydro-pyran-4-yloxy)-phenyl]-furo[3,2-b]pyridin-2-yl}-5-methoxy-N,N-dimethyl-nicotinamide], the IC50 (on TBK1; at IKKε; in assay [1] (setting [2])) was < 100 nM throughout.

For `COc1cc(C(=O)N(C)C)ncc1-c1cc2nccc(-c3ccc(OC4CCOCC4)c(C#N)c3)c2o1` [Compound 326, 5-[7-[3-cyano-4-(oxan-4-yloxy)phenyl]furo[3,2-b]pyridin-2-yl]-4-methoxy-N,N-dimethylpyridine-2-carboxamide], the IC50 (at TBK1; on IKKε; in assay [1] (setting [2])) was < 100 nM each time.

On to `COc1cc(C(=O)N(C)C)nnc1-c1cc2nccc(-c3ccc(OC4CCOCC4)c(C#N)c3)c2o1` [Compound 395, 6-[7-[3-cyano-4-(oxan-4-yloxy)phenyl]furo[3,2-b]pyridin-2-yl]-5-methoxy-N,N-dimethylpyridazine-3-carboxamide], for which the IC50 at TBK1 was < 100 nM; at IKKε, < 100 nM; in assay [1] (setting [2]), 100 to 1000 nM.

Regarding `COc1cc(C(=O)N(C)CCO)ncc1-c1cc2nccc(-c3ccc(N4CC[C@H](F)C4)c(C#N)c3)c2o1` [Compound 379, 5-{7-[3-Cyano-4-((S)-3-fluoro-pyrrolidin-1-yl)-phenyl]-furo[3,2-b]pyridin-2-yl}-4-methoxy-pyridine-2-carboxylic acid (2-hydroxy-ethyl)-methyl-amide], the half-maximal inhibitory concentration (IC50) (on TBK1; at IKKε; in assay [1] (setting [2])) was < 100 nM each time.

`COc1cc(C(=O)N2CC(N3CCOCC3)C2)ccc1-c1cc2nccc(-c3ccc(OC4CCOCC4)c(C#N)c3)c2o1` [Compound 8]: the IC50 (at TBK1; at IKKε; in assay [1] (setting [2])) was < 100 nM in each case.

Regarding `N#Cc1cc(-c2ccnc3cc(-c4ccc(C(=O)NC5CN6CCC5CC6)cc4F)oc23)ccc1OC1CCOCC1` (stereo not drawn) [Compound 139, N-(1-Aza-bicyclo[2.2.2]oct-3-yl)-4-{7-[3-cyano-4-(tetrahydro-pyran-4-yloxy)-phenyl]-furo[3,2-b]pyridin-2-yl}-3-fluoro-benzamide], the results for the IC50 (at TBK1; at IKKε; in assay [1] (setting [2])) were < 100 nM, < 100 nM and 100 to 1000 nM, respectively.

In the case of `COc1cc(C(=O)N(C)CCO)ccc1-c1cc2ncc(F)c(-c3ccc(OC4CCOCC4)c(C#N)c3)c2o1` [Compound 297, 4-[7-[3-cyano-4-(oxan-4-yloxy)phenyl]-6-fluorofuro[3,2-b]pyridin-2-yl]-N-(2-hydroxyethyl)-3-methoxy-N-methylbenzamide], the IC50 on TBK1 is < 100 nM; at IKKε it was < 100 nM; in assay [1] (setting [2]), 100 to 1000 nM.

For the compound `COc1cc(C(=O)NC(C)(C)CCN(C)C)ncc1-c1cc2nccc(-c3ccc(NC4CCOCC4)c(C#N)c3)c2o1` [Compound 423, 5-(7-[3-cyano-4-[(oxan-4-yl)amino]phenyl]furo[3,2-b]pyridin-2-yl)-N-[4-(dimethylamino)-2-methylbutan-2-yl]-4-methoxypyridine-2-carboxamide], the concentration for half-maximal inhibition (IC50) was < 100 nM at TBK1, < 100 nM on IKKε and 100 to 1000 nM in assay [1] (setting [2]).

On to `COc1cc(C(=O)N2CCCC3(CCNC3)C2)ccc1-c1cc2nccc(-c3ccc(OC4CCOCC4)c(C#N)c3)c2o1` (stereo not drawn) [Compound 25, 5-{2-[4-(2,7-Diaza-spiro[4.5]decane-7-carbonyl)-2-methoxy-phenyl]-furo[3,2-b]pyridin-7-yl}-2-(tetrahydro-pyran-4-yloxy)-benzonitrile], for which the figures for the IC50 (on TBK1; on IKKε; in assay [1] (setting [2])) were < 100 nM, < 100 nM and 100 to 1000 nM, respectively.

On to `COc1nc(C(=O)N(C)C)ccc1-c1cc2nccc(-c3ccc(N4CC[C@@H](F)C4)c(C#N)c3)c2o1` [Compound 313, 5-{7-[3-Cyano-4-((R)-3-fluoro-pyrrolidin-1-yl)-phenyl]-furo[3,2-b]pyridin-2-yl}-6-methoxy-pyridine-2-carboxylic acid dimethylamide], for which the IC50 is < 100 nM on TBK1, < 100 nM on IKKε and 100 to 1000 nM in assay [1] (setting [2]).

Regarding `COc1cc(C(=O)N2CC3CN(C)CC3C2)cnc1-c1cc2nccc(-c3ccc(N4CC[C@@H](F)C4)c(C#N)c3)c2o1` (stereo partly drawn) [Compound 452, 2-[(3R)-3-fluoropyrrolidin-1-yl]-5-[2-[3-methoxy-5-([5-methyl-octahydropyrrolo[3,4-c]pyrrol-2-yl]carbonyl)pyridin-2-yl]furo[3,2-b]pyridin-7-yl]benzonitrile], the IC50 on TBK1 is < 100 nM; on IKKε, < 100 nM; in assay [1] (MDA-MB-468, read-out: pIRF3 IC50) it was 100 to 1000 nM.

Regarding `COc1cc(C(=O)N(C)C)ccc1-c1cc2nccc(-c3ccc(OC4CCCOC4)c(C#N)c3)c2o1` (stereo not drawn) [Compound 105, 4-{7-[3-Cyano-4-(tetrahydro-pyran-3-yloxy)-phenyl]-furo[3,2-b]pyridin-2-yl}-3-methoxy-N,N-dimethyl-benzamide], the IC50 on TBK1 is < 100 nM; on IKKε it was < 100 nM; in assay [1] (setting [2]), 100 to 1000 nM.

As to `COc1cc(C(=O)N(C)C)ncc1-c1cc2nccc(-c3ccc(OC4CCNCC4(F)F)c(C#N)c3)c2o1` (stereo not drawn) [Compound 418, 5-(7-[3-cyano-4-[(3,3-difluoropiperidin-4-yl)oxy]phenyl]furo[3,2-b]pyridin-2-yl)-4-methoxy-N,N-dimethylpyridine-2-carboxamide hydrochloride], the IC50 is < 100 nM on TBK1, < 100 nM at IKKε and 100 to 1000 nM in assay [1] (setting [2]).
